Measurements from patent US10194659B2, “Active compound combinations” (BAYER CROPSCIENCE AKTIENGESELLSCHAFT, priority 2014, dated 2019).
Values joined by “and” are separate entries in the source; they are usually repeats but may differ in a detail not shown here. Equal entries are not always repeated.

Columns and labels:
Septoria tritici = assay: In vivo preventive Septoria tritici test (wheat); settings: evaluated 21 days after inoculation
Description: (§1) To produce a suitable preparation of active compound, 1 part by weight of active compound or active compound combination is mixed with the stated amounts of solvent and emulsifier, and the concentrate is diluted with water to the desired concentration. To test for preventive activity, young plants are sprayed with the preparation of active compound or active compound combination at the stated rate of application. After the spray coating has been dried, the plants are sprayed with a spore suspension of Septoria tritici. The plants remain for 48 hours in an incubation cabinet at approximately 20° C. and a relative atmospheric humidity of approximately 100% and afterwards for 60 hours at approximately 15° C. in a translucent incubation cabinet at a relative atmospheric humidity of approximately 100%. The plants are placed in the greenhouse at a temperature of approximately 15° C. and a relative atmospheric humidity of approximately 80%.
The test is evaluated 21 days after the inoculation. 0% means an efficacy which corresponds to that of the untreated control, while an efficacy of 100% means that no disease is observed.

[1] = test system: Blumeria graminis f.sp. hordei; assay: In vivo preventive Blumeria test (barley); settings: evaluated 7 days after inoculation
Description: To produce a suitable preparation of active compound, 1 part by weight of active compound or active compound combination is mixed with the stated amounts of solvent and emulsifier, and the concentrate is diluted with water to the desired concentration. To test for preventive activity, young plants are sprayed with the preparation of active compound or active compound combination at the stated rate of application. After the spray coating has been dried, the plants are dusted with spores of Blumeria graminis f.sp. hordei. The plants are placed in the greenhouse at a temperature of approximately 18° C. and a relative atmospheric humidity of approximately 80% to promote the development of mildew pustules.
(§2) The test is evaluated 7 days after the inoculation. 0% means an efficacy which corresponds to that of the untreated control, while an efficacy of 100% means that no disease is observed.

Leptosphaeria nodorum = assay: In vivo preventive Leptosphaeria nodorum test (wheat); settings: evaluated 8 days after inoculation
Description: as §1, with “Leptosphaeria nodorum.” for “Septoria tritici.”, “approximately” for “approximately 100% and afterwards for 60 hours at approximately 15° C. in a translucent incubation cabinet at a relative atmospheric humidity of approximately”, “25°” for “15°”
(§3) The test is evaluated 8 days after the inoculation. 0% means an efficacy which corresponds to that of the untreated control, while an efficacy of 100% means that no disease is observed.

Puccinia triticina = assay: In vivo preventive Puccinia triticina test (wheat); settings: evaluated 8 days after inoculation
Description: as §1, with “Puccinia triticina.” for “Septoria tritici.”, “approximately” for “approximately 100% and afterwards for 60 hours at approximately 15° C. in a translucent incubation cabinet at a relative atmospheric humidity of approximately”, “20°” for “15°”
as §3

Pyrenophora teres = assay: In vivo preventive Pyrenophora teres test (barley); settings: evaluated 8 days after inoculation
Description: as §1, with “Pyrenophora teres.” for “Septoria tritici.”, “approximately” for “approximately 100% and afterwards for 60 hours at approximately 15° C. in a translucent incubation cabinet at a relative atmospheric humidity of approximately”, “20°” for “15°”
as §3

Alternaria solani = assay: In vivo preventive test on Alternaria test (tomatoes); settings: evaluated 3 days after inoculation
Description: (§4) To produce a suitable preparation of active compound, 1 part by weight of active compound is mixed with the stated amounts of solvent and emulsifier, and the concentrate is diluted with water to the desired concentration. To test for preventive activity, young plants are sprayed with the preparation of active compound at the stated rate of application. After the spray coating has dried on, the plants are inoculated with an aqueous spore suspension of Alternaria solani. The plants are then placed in an incubation cabinet at approximately 20° C. and a relative atmospheric humidity of 100%.
The test is evaluated 3 days after the inoculation. 0% means an efficacy which corresponds to that of the untreated control while an efficacy of 100% means that no disease is observed.

Botrytis cinerea = assay: In vivo preventive test on Botrytis test (beans); settings: lesion size evaluated 2 days after inoculation
Description: To produce a suitable preparation of active compound, 1 part by weight of active compound is mixed with the stated amounts of solvent and emulsifier, and the concentrate is diluted with water to the desired concentration. To test for preventive activity, young plants are sprayed with the preparation of active compound. After the spray coating has dried on, 2 small pieces of agar covered with growth of Botrytis cinerea are placed on each leaf. The inoculated plants are placed in a darkened chamber at 20° C. and a relative atmospheric humidity of 100%.
2 days after the inoculation, the size of the lesions on the leaves is evaluated. 0% means an efficacy which corresponds to that of the untreated control, while an efficacy of 100% means that no disease is observed.

Phakopsora pachyrhizi = assay: In vivo preventive test on Phakopsora test (soybeans); settings: evaluated 7 days after inoculation
Description: as §4, with “the causal agent of soybean rust (Phakopsora pachyrhizi) and stay for 24 h without light” for “Alternaria solani. The plants are then placed”, “24°” for “20°”, “95%. The plants remain in the incubation cabinet at approximately 24° C. and a relative atmospheric humidity of approximately 80% and a day/night interval of 12h.” for “100%.”
as §2

Venturia inaequalis = assay: In vivo preventive test on Venturia test (apples); settings: evaluated 10 days after inoculation
Description: as §4, with “conidia” for “spore”, “the causal agent of apple scab (Venturia inaequalis) and” for “Alternaria solani. The plants are”, “remain for 1 day” for “placed”, “100%. The plants are then placed in a greenhouse at approximately 21° C. and a relative atmospheric humidity of approximately 90%.” for “100%.”
The test is evaluated 10 days after the inoculation. 0% means an efficacy which corresponds to that of the untreated control, while an efficacy of 100% means that no disease is observed.

Compound: fluopyram [1.006, reference compound]
- Efficacy in % found (Septoria tritici; 25 ppm a.i.): 17%
- Efficacy in % found ([1]; 100 ppm a.i.): 71%
- Efficacy in % found (Leptosphaeria nodorum; 12.5 ppm a.i.): 14%
- Efficacy in % found (Leptosphaeria nodorum; 25 ppm a.i.): 14%
- Efficacy in % found (Puccinia triticina; 12.5 ppm a.i.): 0%
- Efficacy in % found (Pyrenophora teres; 12.5 ppm a.i.): 33%
- Efficacy in % found (Pyrenophora teres; 50 ppm a.i.): 75%

Compound: CC1CC(C)(C)c2cccc(NC(=O)c3cn(C)nc3C(F)F)c21 (centres unmarked) [1.032, 3-(difluoromethyl)-1-methyl-N-(1,1,3-trimethyl-2,3-dihydro-1H-inden-4-yl)-1H-pyrazole-4-carboxamide, reference compound]
- Efficacy in % found (Alternaria solani; 0.5 ppm a.i.): 0%
- Efficacy in % found (Alternaria solani; 1 ppm a.i.): 15% and 8%
- Efficacy in % found (Botrytis cinerea; 0.25 ppm a.i.): 18%
- Efficacy in % found (Botrytis cinerea; 0.5 ppm a.i.): 0%
- Efficacy in % found (Phakopsora pachyrhizi; 0.25 ppm a.i.): 0%
- Efficacy in % found (Phakopsora pachyrhizi; 0.5 ppm a.i.): 0%
- Efficacy in % found (Phakopsora pachyrhizi; 1 ppm a.i.): 0%
- Efficacy in % found (Venturia inaequalis; 0.5 ppm a.i.): 0%

Compound: CCCC1CC(C)(C)c2cccc(NC(=O)c3cccnc3C(F)F)c21 (centres unmarked) [(I-5), 2-(difluoromethyl)-N-(1,1-dimethyl-3-propyl-2,3-dihydro-1H-inden-4-yl)nicotinamide]
- Efficacy in % found (Alternaria solani; 0.25 ppm a.i.): 0%
- Efficacy in % found (Alternaria solani; 0.5 ppm a.i.): 8%
- Efficacy in % found (Alternaria solani; 1 ppm a.i.): 15%
- Efficacy in % found (Botrytis cinerea; 1 ppm a.i.): 0%
- Efficacy in % found (Phakopsora pachyrhizi; 0.25 ppm a.i.): 78%
- Efficacy in % found (Phakopsora pachyrhizi; 0.5 ppm a.i.): 84%
- Efficacy in % found (Phakopsora pachyrhizi; 1 ppm a.i.): 85%
- Efficacy in % found (Venturia inaequalis; 0.25 ppm a.i.): 0%
- Efficacy in % found (Venturia inaequalis; 0.5 ppm a.i.): 0%
- Efficacy in % found (Venturia inaequalis; 1 ppm a.i.): 15%
- Efficacy in % found (Puccinia triticina; 25 ppm a.i.): 50%
- Efficacy in % found (Pyrenophora teres; 25 ppm a.i.): 0%
- Efficacy in % found (Pyrenophora teres; 50 ppm a.i.): 0%
- Efficacy in % found (Pyrenophora teres; 100 ppm a.i.): 50%

Compound: CC[C@@H]1CC(C)(C)c2cccc(NC(=O)c3cccnc3C(F)F)c21 [(I-4), 2-(difluoromethyl)-N-[(3R)-3-ethyl-1,1-dimethyl-2,3-dihydro-1H-inden-4-yl]nicotinamide]
- Efficacy in % found ([1]; 25 ppm a.i.): 0%
- Efficacy in % found (Alternaria solani; 0.25 ppm a.i.): 23%
- Efficacy in % found (Alternaria solani; 0.5 ppm a.i.): 30%
- Efficacy in % found (Alternaria solani; 1 ppm a.i.): 55%
- Efficacy in % found (Leptosphaeria nodorum; 25 ppm a.i.): 0%
- Efficacy in % found (Phakopsora pachyrhizi; 0.25 ppm a.i.): 35%
- Efficacy in % found (Phakopsora pachyrhizi; 1 ppm a.i.): 87%
- Efficacy in % found (Venturia inaequalis; 0.5 ppm a.i.): 12%
- Efficacy in % found (Venturia inaequalis; 1 ppm a.i.): 21%
- Efficacy in % found (Puccinia triticina; 12.5 ppm a.i.): 80%
- Efficacy in % found (Pyrenophora teres; 12.5 ppm a.i.): 22%
- Efficacy in % found (Pyrenophora teres; 25 ppm a.i.): 22%
- Efficacy in % found (Pyrenophora teres; 50 ppm a.i.): 33%

Compound: Cn1cc(C(=O)Nc2ccccc2-c2cc(F)c(F)c(F)c2)c(C(F)F)n1 [1.008, fluxapyroxad, reference compound]
- Efficacy in % found (Alternaria solani; 0.25 ppm a.i.): 15% and 8%
- Efficacy in % found (Alternaria solani; 0.5 ppm a.i.): 45%
- Efficacy in % found (Alternaria solani; 1 ppm a.i.): 55% and 78%
- Efficacy in % found (Botrytis cinerea; 1 ppm a.i.): 8% and 0%
- Efficacy in % found (Phakopsora pachyrhizi; 0.25 ppm a.i.): 9% and 0%
- Efficacy in % found (Phakopsora pachyrhizi; 0.5 ppm a.i.): 0%
- Efficacy in % found (Phakopsora pachyrhizi; 1 ppm a.i.): 0%
- Efficacy in % found (Venturia inaequalis; 0.5 ppm a.i.): 8% and 10%

Compound: CCC[C@@H]1CC(C)(C)c2cccc(NC(=O)c3cccnc3C(F)F)c21 [(I-6), 2-(difluoromethyl)-N-[(3R)-1,1-dimethyl-3-propyl-2,3-dihydro-1H-inden-4-yl]nicotinamide]
- Efficacy in % found ([1]; 50 ppm a.i.): 40%
- Efficacy in % found (Alternaria solani; 0.25 ppm a.i.): 15%
- Efficacy in % found (Alternaria solani; 0.5 ppm a.i.): 23%
- Efficacy in % found (Alternaria solani; 1 ppm a.i.): 45%
- Efficacy in % found (Botrytis cinerea; 0.25 ppm a.i.): 0%
- Efficacy in % found (Botrytis cinerea; 0.5 ppm a.i.): 0%
- Efficacy in % found (Phakopsora pachyrhizi; 0.5 ppm a.i.): 92%
- Efficacy in % found (Venturia inaequalis; 0.25 ppm a.i.): 0%
- Efficacy in % found (Venturia inaequalis; 0.5 ppm a.i.): 5%
- Efficacy in % found (Venturia inaequalis; 1 ppm a.i.): 10%
- Efficacy in % found (Puccinia triticina; 25 ppm a.i.): 90%

Compound: CCC1CC(C)(C)c2cccc(NC(=O)c3cccnc3C(F)F)c21 (centres unmarked) [(I-3), 2-(difluoromethyl)-N-(3-ethyl-1,1-dimethyl-2,3-dihydro-1H-inden-4-yl)nicotinamide]
- Efficacy in % found (Septoria tritici; 25 ppm a.i.): 17%
- Efficacy in % found (Septoria tritici; 50 ppm a.i.): 83%
- Efficacy in % found ([1]; 50 ppm a.i.): 29%
- Efficacy in % found ([1]; 100 ppm a.i.): 57%
- Efficacy in % found (Alternaria solani; 0.25 ppm a.i.): 15%
- Efficacy in % found (Alternaria solani; 0.5 ppm a.i.): 45%
- Efficacy in % found (Alternaria solani; 1 ppm a.i.): 45%
- Efficacy in % found (Botrytis cinerea; 0.25 ppm a.i.): 0%
- Efficacy in % found (Botrytis cinerea; 0.5 ppm a.i.): 4%
- Efficacy in % found (Botrytis cinerea; 1 ppm a.i.): 0%
- Efficacy in % found (Phakopsora pachyrhizi; 0.25 ppm a.i.): 24%
- Efficacy in % found (Phakopsora pachyrhizi; 0.5 ppm a.i.): 71%
- Efficacy in % found (Venturia inaequalis; 0.5 ppm a.i.): 11%
- Efficacy in % found (Pyrenophora teres; 25 ppm a.i.): 13%
- Efficacy in % found (Pyrenophora teres; 50 ppm a.i.): 38%
- Efficacy in % found (Pyrenophora teres; 100 ppm a.i.): 50%
